Literature values, collected in patent US20110159054A1, “NANOPARTICULATE BICALUTAMIDE FORMULATIONS” (Elan Pharma International Ltd., priority 2004, published 2011).

Conditions: 37° C., practically insoluble

solubility in water: 5 mg per 1000 mL
SMILES: CC(O)(CS(=O)(=O)c1ccc(F)cc1)C(=O)Nc1ccc(C#N)c(C(F)(F)F)c1 (racemic) [Bicalutamide]
